We go through one compound from patent US9765019B2, “Small-molecule-targeted protein degradation” (Brandeis University, priority 2011, dated 2017).

SMILES strings stand for the structures. Where two headings read alike, the source gives them in different places.

Data set [1] deals with T1, Escherichia coli dihydrofolate reductase (Escherichia coli, UniProt P0ABQ4).
T1 construct: (His)6 (N); made in house; host or cells: Escherichia coli (pET28a vector)
As to the kind of experiment: Degradation of pre-inhibited eDHFR in cell lysates (Western blot). It is filed as biochemical. In general terms: A western blot detects proteins with antibodies after separation by electrophoresis.

The next data set addresses eDHFR-HA-GFP (Escherichia coli, UniProt P0ABQ4). On the procedure:
FIG. 6 depicts degradation of eDHFR-HA in cell lysates and degradation of eDHFR fusion proteins in HeLa cells. (A) Degradation of eDHFR in HeLa cells lysates; (B) quantification of panel (A); (C) Global protein stability (GPS) assay. Cells co-express red fluorescent protein (RFP) and DHFR-HA-GFP from a bicistronic construct. Red and green fluorescence was measured by flow cytometry.
Protein degradation in whole cells was also assessed. eDHFR-HA-GFP was co-expressed with Discosoma sp. red fluorescent protein (RFP) in a bicistronic construct under control of a CMV promoter, with DHFR-HA-GFP translation occurring at the internal ribosome binding site. Thus a single mRNA is responsible for the production of both RFP and DHFR-HA-GFP, so that similar ratios of both proteins should be produced in all transfected cells. Changes in the relative intensities of red and green fluorescence are measured by flow cytometry, providing a facile and quantitative measure of the degradation of DHFR-HA-GFP in living cells and real time.
Cells were grown to 90% confluence in Dulbecco's Modified Minimal Essential Medium supplemented with 10% fetal bovine serum, 1×L-glutamine with no antibiotic in a 6 well plate. At this point the cells were serum starved, and then transfected using […] plasmid (expression driven by the cytomegalovirus promoter; gene coding for enhanced green fluorescent protein fused to the C-terminus of E. coli dihydrofolate reductase): 2 μL Transfectin™ (Biorad) per well. 48 hours after transfection, media was once again aspirated, and fresh serum free media was added. Cycloheximide (final concentration 100 μg/mL) was then added to the cells and after 5 minutes, 30 μM inhibitor was added. At each time point (45 minutes), media was aspirated, cells were trypsinized, centrifuged and washed three times with phosphate buffered saline. Cell pellets were flash frozen in dry ice, and then stored indefinitely at −80° C. The cells were thawed on ice, and then resuspended in lysis buffer (150 mM sucrose, 200 mM sodium phosphate, 43 mM MgCl2, pH 7.8, 0.1% triton X-100). Cells were lysed by two freeze/thaw cycles (−80° C. for 5 minutes, then 4° C. for 10 minutes). Lysate concentrations were normalized by dilution with lysis buffer such that they gave the same A595 when diluted into Bradford assay dye (Biorad).

The target in the next data set is T2, eDHFR-HA (Escherichia coli, UniProt P0ABQ4).
T2 construct: (His)6 (N); made in house; host or cells: Escherichia coli (pET28a vector)
The experiment in a line: Degradation by purified 20S proteasome / immunoproteasome. It is filed as biochemical. The procedure: The protein was pre-inhibited with 1 mM inhibitor by incubation at 30° C. for 20 minutes. This mixture was added to the assay mixture (in 50 mM Hepes, pH 8.0, 250 mM NaCl, 1 mM DTT) such that the final concentration of protein was 90 nM. The concentration of proteasome was 6 nM. The temperature of assay was 37° C. Total assay volume was 55 μL. 15 μL aliquots were extracted at various time points and immediately placed into 6 μL of 5× loading buffer and boiled for 5 minutes. These were stored at −80° C. after flash freezing on dry ice and thawed by boiling for 2 minutes. The data was analyzed by Western blot as described in Example 2.

The subject of another data set is HeLa cells. The experiment in a line: Cytotoxicity and apoptosis (trypan blue staining, PARP cleavage). It is filed as cell-based. To be noted: concentrations up to 135 μM.
The target in another data set is eDHFR (Escherichia coli, UniProt P0ABQ4). It is filed as binding. To be noted: data not shown.
The test system of data set [2] is eDHFR-KRas D12 fusion protein. It is filed as cell-based. To be noted: NIH3T3 cells, 16 μM. The procedure: FIG. 3 depicts the degradation of eDHFR-KRas D12 fusion protein. MSCV retrovirus was used to insert eDHFR-KRas D12 fusion gene into NIH3T3 cells. These cells were plated in a 48-well plate and treated with 16 μM of either trimethoprim or trimethoprim-Boc3Arg, and then harvested at the times indicated. eDHFR-Ras contained a FLAG tag at the amino terminus and was measured through western blot with anti-FLAG antibody. Tubulin was used as a loading control.

Regarding `COc1cc(Cc2cnc(N)nc2N)cc(OC)c1OCC(=O)NCCCCCCNC(=O)C(CCCNC(=NC(=O)OC(C)(C)C)NC(=O)OC(C)(C)C)NC(=O)OC(C)(C)C` (stereo not drawn) [TMP-Boc3Arg, N-(6-(2-(4-((2,4-diaminopyrimidin-5-yl)methyl)-2,6-dimethoxyphenoxy)acetamido)hexyl)-5-(2,3-di-t-butoxycarbonylguanidino)-2-(t-butoxycarbonylamino)pentanamide], in data set [1] (FIG. 6, noncovalent ligand), the “Degradation of target protein (eDHFR fused to GFP)” value is “induced the degradation”. Moreover, the “Degradation of eDHFR in cell lysate assays” value in data set [1] (cell lysate) is “promotes the degradation”. Besides, at eDHFR-HA-GFP (80 μM, 5 hours, GPS assay, anti-HA and anti-GFP blotting), the “decrease of eDHFR-HA-GFP” value was 40%. Further, the “Change in GFP:RFP ratio as function of time” value on eDHFR-HA-GFP (GPS assay, transfected HeLa cells, flow cytometry) is recorded as “time-dependent decrease”. Moreover, the Cell permeability entry at eDHFR-HA-GFP (inferred from whole-cell degradation) is “cell permeable”. Further, the “Degradation of eDHFR-HA-GFP in whole cells” value at eDHFR-HA-GFP (whole cell assays) was “promotes the degradation”. For the same compound, at eDHFR-HA (20S immunoproteasome), the “Degradation using purified immune proteasome” value is recorded as “promotes the degradation”. Further, the “Degradation using purified 20S proteasome” value at eDHFR-HA (purified 20S proteasome, no ATP added) is “promotes the degradation”. Moreover, the “Cytotoxicity / induction of apoptosis” value with HeLa cells was “did not display cytotoxicity or induce apoptosis”. Moreover, the “increase of eDHFR melting point / stability (relative to TMP)” value on eDHFR is reported as “smaller increase”. In addition, the “Degradation of K-Ras-eDHFR fusion protein” value in data set [2] is “can induce the degradation”; in data set [2] (listed as trimethoprim-tag) it was “is degraded”.
